Structures can show the parent of a compound that is named as a salt.
Target: T1, human flk-1 (Homo sapiens, UniProt P35968)
T1 construct: host or cells: Flk-1/NIH cells (NIH fibroblasts)
Assay: Biochemical FLK-1 assay (flk-1 autophosphorylation ELISA)
Conditions: read-out: bio FLK1 IC50 (μM) % if inhibition at 100
Description: This assay evaluates flk-1 autophosphorylation activity in vitro using ELISA.
Materials And Reagents • 1. 15 cm tissue culture dishes • 2. Flk-1/NIH cells: NIH fibroblast line over-expressing human flk-1clone 3 (SUGEN, Inc., obtained from MPI, Martinsried, Germany). • 3. Growth medium: DMEM plus heat inactivated 10% FBS and 2 mM Glutamine (Gibco-BRL). • 4. Starvation medium: DMEM plus 0.5% heat-inactivated FBS, 2 mM Glutamine (Gibco-BRL). • 5. […] L4 or E38 monoclonal antibody specific for flk-1, Purified by Protein-A agarose affinity chromatography (SUGEN, Inc.). • 7. PBS (Dulbecco's Phosphate-Buffered Saline) Gibco Cat. No. 450-1300EB). • 8. HNTG (see BIOCHEMICAL FGFR for preparation). • 9. Pierce BCA protein determination kit. • 10. Blocking buffer • 11. TBST (pH 7.0) • 12. Kinase Buffer • 13. Kinase Stop Solution: 200 mM EDTA. • 14. […] AB kit (Vector Laboratories Cat. No. PK 4000). • 16. DMSO • 17. NUNC 96-well V bottom polypropylene plates (Applied Scientific Cat. No. AS-72092). • 18. Turbo-TMB (Pierce). • 19. Turbo-TMB stop solution: 1 M H2SO4. • 20. ATP (Sigma Cat. No. A-7699). • 21. 20% DMSO in TBS (pH 7.0). Procedure
Cell Growth and Lysate Preparation. • 1. Seed cell into growth medium and grow for 2-3 days to 90-100% confluency at 37° C. and 5% CO2.
2. Remove the medium and wash the cells twice with PBS. Lyse with HNTG lysis buffer. Collect all lysates and vortex mix them for 20-30 seconds. • 3. Remove insoluble material by centrifugation (5-10 min at about 10,000 ×g). • 4. Determine the protein concentration using BCA kit. • 5. Partition lysate into 1 mg aliquots, store at −80° C.
Assay Procedure • 1. Coat Corning 96-well ELISA plates with 2 μg/well purified L4 (or E 38) in 100 μl of PBS. Store overnight at […] • 2. Remove unbound proteins from wells by inverting the plate to remove the liquid. Wash one time with dH2O, pat plate on paper towel to remove excess liquid. • 3. Block plates with 150 μl blocking buffer per well. Incubate for 45-60 minutes with shaking at 4° C. • 4. Remove the blocking buffer and wash the ELISA plate three times with dH2O and one time with TBST. Pat plate on paper towel to remove excess liquid. • 5. Dilute lysate in PBS to give final concentration of 50 μg/100 μl. Add 100 μl of diluted lysate to each well. Incubate with shaking at 4° C. overnight. • 6. Remove unbound proteins from wells by inverting the plate. Wash as in step 4. • 7. Add 80 μl of kinase buffer to wells (90 μl to negative control wells). • 8. Dilute test compounds (normally 10-fold) into wells of a polypropylene plate containing 20% DMSO in TBS. • 9. Add 10 μl of the diluted compounds to the ELISA wells containing immobilized flk-1 and shake. Control wells receive no compounds. • 10. From stock 1 mM ATP, prepare 0.3 mM ATP solution in dH2O (alternatively, kinase buffer may be used). • 11. Add 10 μl of 0.3 mM ATP to all wells except the negative controls. Incubate for 60 min. at room temperature with shaking. • 12. After 1 hr stop the kinase reaction by adding 11 μl 200 mM EDTA. Shake for 1-2 min. • 13. Wash the ELISA plate 4 times with dH2O and twice with TBST. • 14. Add 100 μl of 1:5000 biotinylated 4G10:TBST to all wells. Incubate 45 min with shaking at room temperature. • 15. While the above is incubating, add 50 μl of solutions A & B from the ABC kit to 10 ml of TBST. These solutions must be combined approximately 30 min prior to use. • 16. Wash plates as in step 4. • 17. Add 100 μl of the preformed A & B complex to all wells. Incubate 30 min with shaking at room temperature. • 18. Wash plates as in step 4. • 19. Add 100 μl turbo-TMB. Shake at room temperature for 10-15 min. • 20. When the color in the positive control wells reaches an absorbance of about 0.35-0.4, stop the reaction with 100 μl of turbo-TMB stop solution. • 21. Read plates on Dynatech MR7000 ELISA reader, test filter: 450 nM, reference filter: 410 nM.

T1 sequence (P35968 20-1356): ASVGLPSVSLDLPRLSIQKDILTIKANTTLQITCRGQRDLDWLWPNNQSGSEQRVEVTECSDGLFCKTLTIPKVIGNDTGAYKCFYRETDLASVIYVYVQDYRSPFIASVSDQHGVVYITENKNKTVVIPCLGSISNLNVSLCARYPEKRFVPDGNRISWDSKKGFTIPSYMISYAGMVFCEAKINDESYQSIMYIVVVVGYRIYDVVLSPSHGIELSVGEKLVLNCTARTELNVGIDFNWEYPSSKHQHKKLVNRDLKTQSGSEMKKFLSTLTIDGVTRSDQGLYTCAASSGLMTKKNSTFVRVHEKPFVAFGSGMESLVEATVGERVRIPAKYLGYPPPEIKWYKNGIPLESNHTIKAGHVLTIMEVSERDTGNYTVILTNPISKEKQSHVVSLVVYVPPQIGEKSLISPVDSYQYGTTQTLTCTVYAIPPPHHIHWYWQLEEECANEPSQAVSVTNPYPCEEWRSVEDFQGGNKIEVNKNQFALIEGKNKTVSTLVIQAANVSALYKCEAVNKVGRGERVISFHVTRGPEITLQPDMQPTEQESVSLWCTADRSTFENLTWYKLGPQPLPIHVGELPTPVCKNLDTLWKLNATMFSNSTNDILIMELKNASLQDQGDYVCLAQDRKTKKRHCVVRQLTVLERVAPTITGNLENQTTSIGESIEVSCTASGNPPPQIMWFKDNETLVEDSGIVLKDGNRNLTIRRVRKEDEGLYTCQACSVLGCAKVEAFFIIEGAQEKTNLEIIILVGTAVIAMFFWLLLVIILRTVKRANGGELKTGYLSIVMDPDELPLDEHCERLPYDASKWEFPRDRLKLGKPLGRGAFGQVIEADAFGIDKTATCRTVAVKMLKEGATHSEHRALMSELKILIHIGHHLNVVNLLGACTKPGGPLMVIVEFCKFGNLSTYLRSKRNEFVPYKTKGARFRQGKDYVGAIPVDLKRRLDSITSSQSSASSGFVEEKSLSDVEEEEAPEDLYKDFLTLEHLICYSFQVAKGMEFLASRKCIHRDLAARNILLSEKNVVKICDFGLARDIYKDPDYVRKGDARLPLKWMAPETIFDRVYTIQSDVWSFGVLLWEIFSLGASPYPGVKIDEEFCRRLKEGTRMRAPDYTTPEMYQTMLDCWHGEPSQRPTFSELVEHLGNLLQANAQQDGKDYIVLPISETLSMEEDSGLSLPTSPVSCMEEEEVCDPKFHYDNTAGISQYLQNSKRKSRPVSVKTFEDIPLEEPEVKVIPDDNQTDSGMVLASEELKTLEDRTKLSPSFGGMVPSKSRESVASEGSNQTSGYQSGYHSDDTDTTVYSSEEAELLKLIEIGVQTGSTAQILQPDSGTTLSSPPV

IC50: 4.2 µM
SMILES: Cc1c(/C=C2\C(=O)Nc3ccc(C(=O)O)cc32)[nH]c2ccccc12 [Example 156, 3-(3-Methyl-1H-indol-2-ylmethylene)-2-oxo-2,3-dihydro-1H-indole-5-carboxylic acid (piperidine salt)]
